We go through 3 compounds from patent US7579373B2, “Targeted bisplatinum polyamines as pro-drugs: selective release of platinum” (Virginia Commonwealth University, priority 2002, dated 2009).

Like-named read-outs stand apart in the source and are kept apart here.

One data set has as its system 41M/CDDP. Briefly: SRB growth inhibition assay, 41M/CDDP. The following applies: for IC50: 96 h exposure, read-out: 96H IC50 CH1/CDDP; for RF CH1/CDDP: IC50 resistant/IC50 parent line, 96 h. The class given is cell-based, human. The procedure:
(§1) Cell culture. A2780, A2780/CDDP, CH1, CH1/CDDP, 41M and 41M/CDDP cell lines were used in this study and maintained according to published procedures. (8,9).
(§2) Growth inhibition assay. The Sulforhodamine B (SRB) assay was used to determine growth inhibition potency of platinum drugs (10). The cells were seeded in 96-well microtitre plates at 3-8×10^3 cells/well in 160 μL growth medium and allowed to attach overnight. Platinum agents were then added after serial dilution in quadruplicate wells and exposed to cells for 2 or 96 hours. After the 2 hours drug incubations were complete, plates were washed free of drug with phosphate-buffered saline (PBS) and then refed with normal growth medium for a further 94 hours. Quantitation of cell growth in treated and control wells was then assessed using 0.4% SRB dissolved in 1% acetic acid. IC50 values were determined graphically.
(§3) Of special interest is the remarkably low value for 4 (Fmoc) in A2780 cells.

The format of data set [1] is physicochemical. As to conditions: first order. On the procedure: Analyses of the products and hydrolysis studies were carried out on an analytical Beckman System Gold Nouveau HPLC instrument with UV detection at 215 nm. A Lichrosphere RP-8 column (5 μm particle size, dimensions 250 mm×4 mm) was used with a solvent gradient from water/methanol 97:3 (0.05 M NaClO4, 1% NaCl) to water/methanol 70:30 (0.05 M NaClO4, 2% NaCl).
Hydrolysis Study. For the hydrolysis experiments 10^−3 mMol complex were dissolved in 1 mL of nanopure water. The pH of the solutions was adjusted by addition of HNO3 (0.1 M, 0.01 M) and NaOH (0.1 M, 0.01 M), respectively. The samples were incubated in a water bath at 37° C. and aliquots of 20 μL were taken from the bulk solution for HPLC analysis. The pH values of the samples were controlled in regular intervals and readjusted if necessary.
The hydrolysis of the protective groups of compounds 2-4 was monitored at 37° C. at various pH values. […] In addition, the chromatogram of 2 contained a peak of a minor impurity (ca 0.4%) which remained unchanged during the timecourse of the reaction. Deprotection of the secondary amino function leads to the appearance of a signal for the unprotected spermidine complex 1 that, as a consequence of the increased cationic charge, is well separated from the signal of the N4 blocked precursor. The area percentage of the integrated signal of the unprotected species is taken as an estimate for the amount of hydrolysis at a given timepoint. To allow for a more accurate quantitative comparison of results, the extinction coefficients for compounds 1-4 were determined at 215 nm (Table 1). The integral values of the blocked compounds have been corrected for the higher absorbance of these species at the observed wavelength compared to the unprotected species 1. Table 2 provides a summary of the amount of hydrolysis for all samples before and after the correction. Rate constants were calculated based on the corrected integral values.
The hydrolysis of the blocking groups of on the N4 position of compounds 5-7 was monitored at 37° C. over a pH range of 6-8.
The amount of 1,1/t,t-spermidine released over time is depicted in FIG. 8. No other products were detected, trifluoroacetate, originating from the hydrolysis reaction, is not retained on the column under the present conditions and coelutes with the other anions (Cl^− from 5, NO3^− from pH adjustment). In order to obtain rate constants for the conversion of 7 to 1,1/t,t-spermidine, the integral values of the chromatograms were corrected for the different absorption of the species at the observed wavelength (ε215: 1, 3.64·10^3; 5, 7.62·10^3; 6, 10.4·10^3; 7, 9.46·10^3 L.Mol^−1 .cm^−1). Concentrations were calculated based on the assumption that the sum of the concentrations of both species at every time point equals the original concentration of 7 at the start of the experiment. First order rate constants were obtained using the program MicroMath Scientist Version 2.01. The results are summarized in Table 3 and compared with values obtained for BOC and Fmoc protected spermidine complexes.

The next data set deals with CH1. Briefly: SRB growth inhibition assay, CH1. As to conditions: 96 h exposure. The class given is cell-based, human. On the procedure: as §1, §2, §3
A further data set deals with CH1/CDDP. Briefly: SRB growth inhibition assay, CH1/CDDP. The class given is cell-based, human. As to conditions: for IC50: 96 h exposure; for RF CH1/CDDP: IC50 resistant/IC50 parent line, 96 h. The procedure:
as §1
as §2, with “graphically. […]” for “graphically.”

Another data set deals with 41M. Briefly: SRB growth inhibition assay, 41M. The class given is cell-based, human. The following applies: 96 h exposure. On the procedure:
as §1, §2, §3

A further data set concerns A2780/CDDP. Briefly: SRB growth inhibition assay, A2780/CDDP. The class given is cell-based, human. The following applies: for IC50: 96 h exposure; for RF A2780/CDDP: IC50 resistant/IC50 parent line, 96 h. The procedure: as §1
as §2, with “graphically. […]” for “graphically.”

In a further data set the test system is A2780. Briefly: SRB growth inhibition assay, A2780. The class given is cell-based, human. As to conditions: 96 h exposure. The procedure: as §1, §2, §3
Data set [2] relates to L1210/0. Briefly: Cellular accumulation in L1210/0 cells. The class given is cell-based, murine. The following applies: 2 hours of exposure; (±SE), 3 experiments of 2 determinations. On the procedure: (§4) Cellular accumulation. The cellular accumulation assays followed published procedures (7). Briefly, cells were resuspended at 10^7/mL in media supplemented with […]. Platinum complexes were added, and samples were incubated at 37° C. in 5% CO2. At 0 and 2 hours aliquots were removed for determination of cell concentrations and for measurement of platinum content. For the latter, aliquots were washed three times in cold phosphate buffered saline, resuspended in 1% Triton-X in water, and sonicated. Platinum content was measured by flameless atomic absorption spectroscopy.
(§5) The cellular accumulation of the blocked Pt compound 2 was also investigated. […] Based solely on charge considerations the BOC-spermidine with a charge of 2+ should have cellular uptake similar to 1,1/t,t (n=6). The enhanced uptake could be explained by some hydrolysis in media or plasma producing small amounts of the protonated 1,1/t,t-spermidine. Considering the potency of polynuclear-polyamine compounds, a small percentage of hydrolysis could have a significant impact on in vivo activity.

Data set [3] deals with L1210/0. Briefly: Growth inhibition in L1210/0 cells. The class given is cell-based, murine. The following applies: 2 hours of exposure; mean (±SE), 3 experiments of 2 determinations.
Excerpt: To examine the pro-drug potential in a biological setting, a comparison of the pharmacological properties of the blocked polyamine compounds in L1210 murine leukemia cells was undertaken.
For data set [4], the system named is L1210/DDP. Briefly: Cellular accumulation in L1210/DDP cells. The class given is cell-based, murine. The following applies: 2 hours of exposure; (±SE), 3 experiments of 2 determinations. On the procedure: as §4, §5
The test system of data set [5] is L1210/DDP. Briefly: Growth inhibition in L1210/DDP cells. The class given is cell-based, murine.
Data set [6] in a line: pKa of the N4 site by pH titration monitored by 1H NMR. The class given is physicochemical. The procedure:
pH measurements were taken on a Corning 340 pH meter with combined glass electrode. pD values in deuterated solutions were obtained by addition of 0.4 units to the meter reading. Extinction coefficients were determined with a Jasco V-550 UV/VIS spectrophotometer using 1 cm cuvettes.
In order to find the optimal conditions for the synthetic procedure, the pKa of the N4 site of the unprotected Pt spermidine complex 1 was determined prior to the protection reactions (6). A pH titration was carried out and monitored by ^1H NMR spectroscopy (11 and 12). […] The increased acidity is most likely a consequence of the electron withdrawing effect of the coordinated platinum centers.

`N.N.N.N.NCCCCN(CCCN)C(=O)C(F)(F)F.[Cl-].[Cl-].[Cl][Pt+].[Cl][Pt+]` [Compound 7, [{trans-Pt(NH3)2Cl}2-μ-N^4—CF3CO-spermidine-N^1,N^8]Cl2]: the IC50 was 19 µM with 41M/CDDP; 2.4 µM in the data set with CH1; 5 µM with CH1/CDDP; 3.7 µM in the data set with 41M; 46 µM with A2780/CDDP; 6.8 µM with A2780. Moreover, the “RF CH1/CDDP” value in the data set on 41M/CDDP came out at 5.1; in the data set on CH1/CDDP it was 2.1. Further, the “Rate constant for the deprotection” value in [1] (pH 6, 37° C.) is given as 4.44 (±0.11) · 10^−8 s^−1; in data set [1] (pH 7, 37° C.) it was 2.73 (±0.06) · 10^−7 s^−1; in data set [1] (pH 8, 37° C.) it was 1.79 (±0.03) · 10^−6 s^−1. Further, the “RF A2780/CDDP” value in the data set with A2780/CDDP was determined as 6.8.

As to `N.N.N.N.NCCCC[NH2+]CCCN.[Cl-].[Cl-].[Cl-].[Cl][Pt+].[Cl][Pt+]` [Compound 1, [{trans-Pt(NH3)2Cl}2-μ-spermidine-N^1,N^8]Cl3], the “Accumulation L1210/0” value with L1210/0 [2] is listed as 17 (3.4) attamol Pt complex/cell. Further, the IC50 with CH1 is 0.43 µM; in the data set on L1210/0 [3], 0.75 µM; with CH1/CDDP, 0.35 µM; with L1210/DDP [5] (2 hours of exposure, mean (±SE), 3 experiments of 2 determinations), 0.26 µM; in the data set with 41M it was below 0.25 µM; in the data set with A2780/CDDP, below 0.25 µM. Besides, the IC50 in the data set with A2780 was below 0.25 µM. For the same compound, the “Accumulation L1210/DDP” value in the data set on L1210/DDP [4] is 20 (2.1) attamol Pt complex/cell. Besides, in the data set on CH1/CDDP, the “RF CH1/CDDP” value is 0.8. Also, the “RF, resistance factor” value in the data set on L1210/DDP [5] (IC50 L1210/DDP / IC50 L1210/0, 2 hours of exposure) came to 0.35. Moreover, the “pKa of the N4 site” value in data set [6] stood at 9.24±0.05.

`CC(=O)N(CCCN)CCCCN.N.N.N.N.[Cl-].[Cl-].[Cl][Pt+].[Cl][Pt+]` [Compound 5, [{trans-Pt(NH3)2Cl}2-μ-N^4—CH3CO-spermidine-N^1,N^8]Cl2]: the IC50 in the data set on 41M/CDDP came to 24 µM; in the data set on CH1, 7.4 µM; with CH1/CDDP it was 12.5 µM; in the data set on 41M, 17.5 µM; in the data set on A2780/CDDP it was 54 µM; in the data set with A2780, 14 µM. The “RF CH1/CDDP” value amounted to 1.4 in the data set on 41M/CDDP and 1.7 in the data set with CH1/CDDP. Further, in the data set on A2780/CDDP, the “RF A2780/CDDP” value is 3.9.
